Laboratory results taken from publication PMC7187762 (ACS chemical biology, 2018).
No end group written: not given here.

Tests used:
[1] = molecular target: proteinase K (Parengyodontium album, UniProt P06873); assay: Resistance to proteinase K digestion; details: isolated enzyme proteinase k
[2] = Temperature-dependent circular dichroism; type: physicochemical; details: CD; at 95°C

proteinase K, sequence (P06873 106-384, species assumed): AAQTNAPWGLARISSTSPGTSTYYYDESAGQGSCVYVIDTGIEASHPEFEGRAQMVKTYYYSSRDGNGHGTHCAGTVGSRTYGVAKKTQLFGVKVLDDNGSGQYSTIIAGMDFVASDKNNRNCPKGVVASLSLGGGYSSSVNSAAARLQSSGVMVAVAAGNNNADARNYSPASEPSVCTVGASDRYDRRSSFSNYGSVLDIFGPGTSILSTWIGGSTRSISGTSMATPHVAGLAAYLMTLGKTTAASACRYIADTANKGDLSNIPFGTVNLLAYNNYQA

| Substance | half-life [1] | decrease in spectral intensity at 215 nm [2] |
| --- | --- | --- |
| Ac-TWNPATGKWT-NH2 [HP7Δ] | 0.6 min | – |
| KTWNPATGKWTE [HP7] | 2 min | – |
| NS1 HBS: HBS-stabilized β-hairpin derived from the Ras-binding NS1 monobody (GGWKGQVYYVG; HBS hydrogen bond surrogate constraint) | – | 25% |
